Laboratory results from patent US5608047A, “Cyclic ADP-ribose and analogs” (Wisconsin Alumni Research Foundation, priority 1995, dated 1997).

Tested on: rat brain microsomes
Experiment: Ca2+ release measurement with fluo-3 in rat brain microsomes
Format: biochemical
Conditions: for EC50: extramicrosomal Ca2+ by fluo-3, read-out: ED50 of Ca^2+ release
Protocol: Ca^2+ release measurements as follows: Rat brain microsomes were prepared on the day of the experiment. Loading of the microsomes with Ca^2+ took approximately 30 minutes at 24° C. and was used at a protein concentration of 0.5 mg/ml. The free Ca^2+ used for Ca^2+ loading was 0.5 to 2 uM and was present in the loading solution as a contaminant. Ca^2+ uptake and release was followed by measuring extramicrosomal Ca^2+ using fluo-3 (Cal-Biochem) (1 uM). Fluorescence intensity of fluo-3 was measured at excitation and emission wavelength of 490 and 535 nm respectively. Fluorimetry was performed on 500 ul aliquots of microsomes using a Perkin Elmer MF-3. Additions were made in volumes of 1-5 ul and all chemicals were added in incubation medium containing 10 uM EGTA. Ca^2+ traces were calibrated by adding Ca^2+ standard solution.
Ca^2+ release measurements were done as outlined in Example 1.

Compound | EC50 [nM] | Ca^2+ release caused by the substance | further results
heparin |  |  | effect on Ca^2+ release induced by IP3 (release induced by IP3): blocked Ca^2+ release induced by IP3
N=c1c2ncn3c2ncn1[C@@H]1O[C@H](COP(=O)(O)OP(=O)(O)OC[C@H]2O[C@@H]3[C@H](O)[C@@H]2O)[C@@H](O)[C@H]1O [cADPR, cyclic ADP-ribose] | 100 |  | 
N=c1c2ncn3c2ncn1[C@@H]1O[C@H](COP(=O)(O)OP(=O)(O)OP(=O)(O)OC[C@H]2O[C@@H]3[C@H](O)[C@@H]2O)[C@@H](O)[C@H]1O [cATPR, cycle ATP-ribose] | 5 |  | potency relative to cADPR (times more potent) (ratio of ED50 values): approximately 20 times
NC(=O)c1ccc[n+]([C@@H]2O[C@H](COP(=O)([O-])OP(=O)(O)OC[C@H]3O[C@@H](n4cnc5c(N)ncnc54)[C@H](O)[C@@H]3O)[C@@H](O)[C@H]2O)c1 [β-NAD] |  | caused no Ca^2+ release | 
ryanodine |  |  | effect on Ca^2+ release induced by cADPR (release induced by cADPR): inhibited release of Ca^2+ by cADPR
Nc1ncnc2c1ncn2[C@@H]1O[C@H](COP(=O)(O)OP(=O)(O)OC[C@H]2OC(O)[C@H](O)[C@@H]2O)[C@@H](O)[C@H]1O (stereo partly shown) [ADPR, ADP-ribose] |  | caused no Ca^2+ release | 
